Read-outs that look alike come from different tables or passages of the source.
Columns and labels:
[1] = test system: ERK1/2 (Thr202/Tyr204) phosphorylation in KYSE520 cells; assay: Cellular Phospho-p44/42 MAPK (Erk 1/2) (Thr202/Tyr204) Assay (In-Cell Western); format: cell-based; conditions: Homo sapiens, KYSE-520, 1 h, read-out: Biological Example 2 IC50 (nM)
Method: KYSE520 cells were obtained from DSMZ and grown in RPMI supplemented with 10% fetal bovine serum, pennicillin/streptomycin, 2 mM L-alanyl-L-glutamine dipeptide in 0.85% NaCl (Glutamax™), non-essential amino acids, and sodium pyruvate. Cells were plated in 96-well plates at 30,000 cells/well and allowed to attach overnight at 37° C./5% CO2. Cells were treated with compounds prepared as a 10-point, 1:3 dilution series (range: 20 μM-1 nM), with a final DMSO concentration of 0.5%. After 1 hour incubation, cells were fixed in 3.7% formaldehyde in Dulbecco's phosphate-buffered saline (“dPBS”) at room temperature for 20 minutes. Cells were then washed with dPBS and permeabilized in 100% MeOH at room temperature for 10 minutes. Following permeabilization, cells were washed in dPBS and incubated in LI-COR Blocking Buffer (LI-COR Biosciences, Cat #927-40000) for 1 hour or longer. Plates were then incubated with an antibody specific for the MEK-dependent ERK1/2 phosphorylation sites, threonine 202 and tyrosine 204 (Cell Signaling Technologies; Cat #9101), downstream of SHP2 in the MAP kinase signal transduction pathway, as well as GAPDH (Millipore; Cat #MAB374). pErk1/2 (Thr202/Tyr204) antibody was diluted in LI-COR blocking buffer containing 0.05% polysorbate-20 (Tween-20) at 1:250; GAPDH was diluted at 1:2,500. The plates were incubated overnight at 4° C. After washing with PBS/0.05% Tween-20, the cells were incubated with fluorescently-labeled secondary antibodies (Anti-rabbit-Alexa Flour680, Invitrogen Cat #A21109; Anti-mouse-IRDye800CW, Li-cor Bioscieces Cat #926-32210, both at 1:1000 dilution) for 1 hour. Cells were then washed, as above, and analyzed for fluorescence at both 680 nm and 800 nm wavelengths using the Aerius Infrared Imaging System (LI-COR Biosciences, Model 9250). Phosphorylated Erk1/2 (Thr202/Tyr204) signal was normalized to GAPDH signal for each well. IC50 values were calculated from the normalized values using a 4-parameter fit in BioAssay software. […] The reported IC50 in Table 2 may be from a single assay or the mean of multiple assays.

[2] = biological target: T1, full-length SHP2 (His6-tagged SHP2(2-527)) (Homo sapiens, UniProt Q06124); assay: SHP2 Enzymatic Assay (fluorescence intensity kinetic assay, DiFMUP hydrolysis); format: biochemical
T1 construct: His6-tagged SHP2(2-527); His6; made in house; host or cells: E. coli
Outline: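 1 nM His6-SHP2(2-527), activated by 1 μM bis-phosphopeptide, hydrolysed 50 μM DiFMUP in 25 mM HEPES pH 7.4 with 1 mM DTT, 50 mM KCl and 2% DMSO. DiFMU fluorescence (Ex 355/Em 460 nm) was read kinetically for 15 min at ambient temperature.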

[3] = full-length SHP2 with 1 μM activating peptide, 50 μM DiFMUP, single assay or mean of multiple assays, read-out: Biological Example 1 IC50

T1 sequence (Q06124 2-527): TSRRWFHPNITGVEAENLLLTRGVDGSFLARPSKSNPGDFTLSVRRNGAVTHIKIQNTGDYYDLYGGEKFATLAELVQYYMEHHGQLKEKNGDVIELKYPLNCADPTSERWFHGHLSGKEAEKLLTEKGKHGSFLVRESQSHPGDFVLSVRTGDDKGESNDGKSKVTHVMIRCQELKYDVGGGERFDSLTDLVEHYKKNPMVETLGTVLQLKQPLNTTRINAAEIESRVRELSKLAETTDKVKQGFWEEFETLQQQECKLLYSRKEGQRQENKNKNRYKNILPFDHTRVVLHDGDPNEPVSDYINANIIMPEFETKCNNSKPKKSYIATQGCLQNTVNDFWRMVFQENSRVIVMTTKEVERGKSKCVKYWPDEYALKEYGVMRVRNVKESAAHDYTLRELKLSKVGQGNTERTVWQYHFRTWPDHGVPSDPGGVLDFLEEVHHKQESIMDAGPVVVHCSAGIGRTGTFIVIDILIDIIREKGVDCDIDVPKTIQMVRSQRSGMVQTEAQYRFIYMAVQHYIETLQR

SMILES	IC50 [1]	IC50 [2, 3]	IC50 [2]
Nc1nccc(Sc2ccc3nc(N4CCC5(CC4)Cc4ncc(F)cc4[C@H]5N)cnc3n2)c1Cl [Example 117, (S)-1′-(6-((2-amino-3-chloropyridin-4-yl)thio)pyrido[2,3-b]pyrazin-2-yl)-3-fluoro-5,7-dihydrospiro[cyclopenta[b]pyridine-6,4′-piperidin]-5-amine]	6 nM	50 nM	
Nc1nccc(Sc2ccc3nc(N4CCC5(CC4)Cc4ncccc4[C@H]5N)cnc3n2)c1Cl [Example 125, (S)-1′-(6-((2-amino-3-chloropyridin-4-yl)thio)pyrido[2,3-b]pyrazin-2-yl)-5,7-dihydrospiro[cyclopenta[b]pyridine-6,4′-piperidin]-5-amine]	5 nM	38 nM	
CC(C)(C#N)CNc1nccc(Sc2ccc3nc(N4CCC(C)(N)CC4)cnc3n2)c1Cl [Example 134, 3-((4-((2-(4-amino-4-methylpiperidin-1-yl)pyrido[2,3-b]pyrazin-6-yl)thio)-3-chloropyridin-2-yl)amino)-2,2-dimethylpropanenitrile]	810 nM		238 nM
N[C@@H]1c2ccccc2CC12CCN(c1cnc3nc(Sc4ccnc5c4C(F)(F)C(=O)N5)ccc3n1)CC2 [Example 142, (S)-4-((2-(1-amino-1,3-dihydrospiro[indene-2,4′-piperidin]-1′-yl)pyrido[2,3-b]pyrazin-6-yl)thio)-3,3-difluoro-1,3-dihydro-2H-pyrrolo[2,3-b]pyridin-2-one]	4 nM		26 nM
N[C@@H]1c2cccnc2CC12CCN(c1cnc3nc(Sc4cccnc4C(F)(F)F)ccc3n1)CC2 [Example 163, (S)-1′-(6-((2-(trifluoromethyl)pyridin-3-yl)thio)pyrido[2,3-b]pyrazin-2-yl)-5,7-dihydrospiro[cyclopenta[b]pyridine-6,4′-piperidin]-5-amine]	30 nM		52 nM
Cc1ccc2c(c1)[C@@H](N)C1(CCN(c3cnc4nc(Sc5ccnc(N)c5Cl)ccc4n3)CC1)C2 [Example 178, (S)-1′-(6-((2-amino-3-chloropyridin-4-yl)thio)pyrido[2,3-b]pyrazin-2-yl)-6-methyl-1,3-dihydrospiro[indene-2,4′-piperidin]-1-amine]	17 nM	57 nM	
C[C@@H]1OCC2(CCN(c3cnc4nc(Sc5ccnc(NCCO)c5Cl)ccc4n3)CC2)[C@@H]1N [Example 185, 2-((4-((2-((3S,4S)-4-amino-3-methyl-2-oxa-8-azaspiro[4.5]decan-8-yl)pyrido[2,3-b]pyrazin-6-yl)thio)-3-chloropyridin-2-yl)amino)ethan-1-ol]	166 nM		408 nM
C[C@@H]1OCC2(CCN(c3cnc4nc(Sc5ccnc6[nH]ccc56)ccc4n3)CC2)[C@@H]1N [Example 189, (3S,4S)-8-(6-((1H-pyrrolo[2,3-b]pyridin-4-yl)thio)pyrido[2,3-b]pyrazin-2-yl)-3-methyl-2-oxa-8-azaspiro[4.5]decan-4-amine]	98 nM		59 nM
Nc1nccc(Sc2ccc3nc(N4CC5CC(C4)N5)cnc3n2)c1Cl [Example 200, 4-((2-(3,6-diazabicyclo[3.1.1]heptan-3-yl)pyrido[2,3-b]pyrazin-6-yl)thio)-3-chloropyridin-2-amine]	122 nM		48 nM
N[C@@H]1c2cccnc2CC12CCN(c1cnc3nc(Sc4ccnc(N5CC[C@H](CO)C5)c4Cl)ccc3n1)CC2 [Example 210, ((S)-1-(4-((2-((S)-5-amino-5,7-dihydrospiro[cyclopenta[b]pyridine-6,4′-piperidin]-1′-yl)pyrido[2,3-b]pyrazin-6-yl)thio)-3-chloropyridin-2-yl)pyrrolidin-3-yl)methanol]	16 nM		63 nM
